Structures can show the parent of a compound that is named as a salt. Where two headings read alike, the source gives them in different places.
How the values were obtained:
[1] = cited from earlier work
[2] = Solubility in aqueous solvents/media (general statement); format: physicochemical; conditions: versus aqueous media
[3] = Dissolution test in dilute acid, evaluated visually; format: physicochemical
Procedure: 60 mg raloxifene HCl was transferred to a dissolution vessel containing one liter 0.1 M HCl. The mixture was vigorously mixed and left at room temperature over night. Subsequently the dissolution was evaluated visually.
A similar dissolution test was performed using 60 mg raloxifene hydrochloride in 0.1 M phosphoric acid.

[4] = Intrinsic dissolution rate, Rotation Disc Method (USP 1087); format: physicochemical; conditions: 37° C., 100 rpm, average of two measurements
Procedure: The raloxifene hydrochloride salt used in these experiments was purchased from Otto Bradt GmbH (batch MA/RF/12003) while the rest of the raloxifene acid additions salts were prepared according to Example 1-6.
The experiments were carried out following the procedure of Rotation Disc Method (USP 1087) using Vankel VK 7000 Intrinsic dissolution apparatus (Vankel Technology group, W. Vankelion) equipped with Vankel 12-4120 intrinsic disc having a surface area of 0.5 cm^2, Vankel 12-4130 surface plate, Vankel 12-4140 punch, and Vankel shaft and holder (surface area: 0.5 cm^2) and operating at a rotation rate of 100 rpm.
The buffer solution is handled in a 750 ml measuring bottle, degassed and transferred into a dissolution vessel. Approximately 100 mg compound is weighed out and transferred into an intrinsic disc. Said disc is then assembled, and to said disc a disc is applied in the IR-press at a pressure of 5 kN for 1 minute. The disc is started and samples of 10 ml are collected by use of “pressure vials” after 1, 10, 20, 30, 45, and 60 minutes. The change of volume is corrected using the equation: Q=Vs×(sumCn−1)+Cn×Vt wherein Q designates the volume at the time t, C designates the concentration of the sample n, Vt designates the volume of the liquid collected at the time t, and Vs designates the volume of the sample collected. The sample is measured against a standard using HPLC. In these measurements a 5 microns 3.9×150 mm column filled with symmetrical material is employed and as eluant a 20 mM phosphate buffer KH2PO4, pH 6.8 mixed with acetonitrile and tetrahydrofuran in the ratio 55:35:10 is used.
The standard is prepared by use of following procedure: 20 mg of salt is dissolved initially in 100 ml of MeOH and then 1 ml of this solution is transferred to a 50 ml flask with water and then 2 ml to a 20 ml flask of buffer in question.
pH 1: a 0.1 M HCl is used.
0.025 M Phosphate buffer solution pH 2.0: 3.40 g of potassium dihydrogen phosphate is dissolved in 900 ml of water. Then pH is adjusted to 2.0 with phosphoric acid and diluted to 1000.0 ml with water. Exactly 5.85 g of NaCl is added to 1 L of buffer.
0.025 M Phosphate buffer solution pH 3.0: 3.40 g of potassium dihydrogen phosphate is dissolved in 900 ml of water. Then pH is adjusted to 3.0 with phosphoric acid and diluted to 1000.0 ml with water. Exactly 5.85 g of NaCl is added to 1 L of buffer.
0.022 M Phosphate buffer solution pH 4.0: 3.0 g of potassium dihydrogen phosphate is dissolved in 800 ml of water. Then pH is adjusted with 1 M potassium hydroxide and phosphoric acid and diluted to 1000.0 ml with water. Exactly 5.85 g of NaCl is added to 1 L of buffer. 0.02 M Phosphate buffer solution pH 5.0: 2.72 g of potassium dihydrogen phosphate is dissolved in 800 ml of water. Then pH is adjusted with 1 M potassium hydroxide and diluted to 1000.0 ml with water. Exactly 5.85 g of NaCl is added to 1 L of buffer.

[5] = Hydrochloride, pH 1 (0.1 M HCl)
[6] = Phosphate, pH 2, chloride 0.1 M
[7] = Phosphate, pH 3, chloride 0.1 M
[8] = Phosphate, pH 4, chloride 0.1 M
[9] = Phosphate, pH 5, chloride 0.1 M

| Molecule | solubility in aqueous solvents [1] | solubility in aqueous solvents ([1]; hydrochloride) | solubility in aqueous media comprising hydrochloric acid [2] | dissolution evaluated visually ([3]; 60 mg in 0.1 M phosphoric acid, similar test) | dissolution evaluated visually ([3]; 60 mg in one liter 0.1 M HCl, vigorously mixed, room temperature over night) | intrinsic dissolution rate (IDR) [4, 5] | intrinsic dissolution rate (IDR) [4, 6] | intrinsic dissolution rate (IDR) [4, 7] | intrinsic dissolution rate (IDR) [4, 8] | intrinsic dissolution rate (IDR) [4, 9] |
| --- | --- | --- | --- | --- | --- | --- | --- | --- | --- | --- |
| O=C(c1ccc(OCCN2CCCCC2)cc1)c1c(-c2ccc(O)cc2)sc2cc(O)ccc12 [raloxifene as free base, 6-hydroxy-2-(4-hydrophenyl)-3-[4-(2-piperidinoethoxy)-benzoyl]benzo-[b]-thiophene] | only sparingly soluble | – | – | – | – | – | – | – | – | – |
| O=C(c1ccc(OCCN2CCCCC2)cc1)c1c(-c2ccc(O)cc2)sc2cc(O)ccc12 [Hydrochloride, raloxifene hydrochloride, reference compound] | – | fairly soluble | decreases significant | all raloxifene hydrochloride seemed to be dissolved | Very little of the initial added amount of raloxifene hydrochloride was dissolved | 0.0022 μmol/min * cm^2 | 0.0026 μmol/min * cm^2 | 0.0022 μmol/min * cm^2 | 0.0022 μmol/min * cm^2 | 0.0044 μmol/min * cm^2 |
| [6-hydroxy-2-(4-hydroxyphenyl)benzo[b]thien-3-yl][4-[2-(1-piperidinyl)ethoxy]phenyl-, succinate | – | – | – | – | – | 0.0550 μmol/min * cm^2 | 0.0228 μmol/min * cm^2 | 0.0271 μmol/min * cm^2 | 0.0127 μmol/min * cm^2 | 0.0119 μmol/min * cm^2 |
| CC(O)C(=O)O.O=C(c1ccc(OCCN2CCCCC2)cc1)c1c(-c2ccc(O)cc2)sc2cc(O)ccc12 [DL-lactate hemihydrate, [6-hydroxy-2-(4-hydroxyphenyl)benzo[b]thien-3-yl][4-[2-(1-piperidinyl)ethoxy]phenyl-, DL-lactate] | – | – | – | – | – | 0.0056 μmol/min * cm^2 | 0.0119 μmol/min * cm^2 | 0.0062 μmol/min * cm^2 | 0.0212 μmol/min * cm^2 | 0.0215 μmol/min * cm^2 |
| C[C@H](O)C(=O)O.O=C(c1ccc(OCCN2CCCCC2)cc1)c1c(-c2ccc(O)cc2)sc2cc(O)ccc12 [L-Lactate ¼-hydrate] | – | – | – | – | – | 0.0035 μmol/min * cm^2 | 0.0028 μmol/min * cm^2 | 0.0067 μmol/min * cm^2 | 0.0324 μmol/min * cm^2 | 0.0247 μmol/min * cm^2 |
| C[C@H](O)C(=O)O.O=C(c1ccc(OCCN2CCCCC2)cc1)c1c(-c2ccc(O)cc2)sc2cc(O)ccc12 [L-lactate hemihydrate] | – | – | – | – | – | 0.0475 μmol/min * cm^2 | 0.0453 μmol/min * cm^2 | 0.0403 μmol/min * cm^2 | 0.0190 μmol/min * cm^2 | 0.0091 μmol/min * cm^2 |
| O=C(O)CC(=O)O.O=C(c1ccc(OCCN2CCCCC2)cc1)c1c(-c2ccc(O)cc2)sc2cc(O)ccc12 [Malonate] | – | – | – | – | – | 0.0229 μmol/min * cm^2 | 0.0173 μmol/min * cm^2 | 0.0148 μmol/min * cm^2 | 0.0136 μmol/min * cm^2 | 0.0112 μmol/min * cm^2 |

— US7964734B2, “Raloxifene acid addition salts and/or solvates thereof, improved method for purification of said raloxifene acid addition salts and/or solvates thereof and pharmaceutical compositions comprising these” (A/S Gea Farmaceutisk Fabrik, priority 2002, dated 2011)
